Data published in patent publication US7666985B2, “HLA-A24-restricted cancer antigen peptides” (International Institute of Cancer Immunology, Inc., priority 2002, dated 2010).
“Also recorded” adds a separate entry of the source. Square brackets hold non-standard residues; d marks the D form. Ends that are not written are not given here. Abu = CC[C@H](N)C(=O)O

Columns and labels:
[1] = tested on: Jurkat-A2402/K^b cells pulsed with the peptide; test: CTL-inducing activity (immunogenicity) in HLA-A2402/K^b transgenic mouse, 51Cr release assay; type: in vivo; details: for immunogenicity (activity to induce CTLs; cytotoxic activity, % Specific Lysis): HLA-A2402/K^b transgenic mice (three per peptide) immunized s.c. with peptide + helper peptide in IFA, splenocytes stimulated in vitro 6 days, E/T ratio of 80; for immunogenicity (activity to induce CTLs; cytotoxic activity, % Specific Lysis) / induction of specific CTLs (cytotoxic activity, % Specific Lysis): peptide-pulsed vs non-pulsed Jurkat-A2402/K^b targets; for induction of specific CTLs (cytotoxic activity, % Specific Lysis): Reference 9: transgenic mouse (04-1 line) immunized with known HLA-A24-restricted cancer antigen peptide + helper peptide in IFA
Procedure: Specifically, HER-2/neu780-788 and helper peptide were adjusted to 40 mg/ml and 20 mg/ml, respectively, in DMSO and diluted with a physiological saline to 2 mg/ml and 1 mg/ml, respectively. They were mixed with an equal amount of Freund's incomplete adjuvant (Wako Pure Chemical Industries, Ltd.) using a glass syringe to prepare a water-in-oil emulsion. The resultant preparation (200 μl) was injected into a transgenic mouse (04-1 line) subcutaneously in the base of the tail for immunization. Seven days after the initiation of experiment, the spleen was removed and grounded on the frosted part of glass slide, and splenocytes were recovered and prepared. A portion of the splenocytes undergone hemolysis treatment with an ACK buffer (0.15 M NH4Cl, 10 mM KHCO3, 0.1 mM EDTA, pH 7.2-7.4) was exposed to X ray radiation (2,000 rad), pulsed with the above-mentioned peptide (100 μg/ml) for 1 hour, and seeded into a 24-well plate at 0.7×10^6/well. Non-radiated, non-peptide-pulsed splenocytes (7×10^6/well) were added together and stimulated again at 37° C. (final concentration of peptide, 1 μg/ml). In vitro stimulation was carried out for 6 days in […] of a culture solution (CTM culture solution) containing 10% FCS, 10 mM HEPES, 20 mM L-glutamine, 1 mM sodium pyruvate, 1 mM MEM nonessential amino acid, 1% MEM vitamin and 55 μM 2-mercaptoethanol in RPMI 1640 medium.
On the other hand, Jurkat-A2402/K^b cells prepared in Reference 8 were labeled with ^51Cr (3.7 MBq/10^6 cells) and pulsed with the peptide above at 100 μg/ml for one hour. The labeling was carried out over 2 hours, and 1 hour after initiation of labeling, peptide was added to make the final concentration 100 μg/ml. Cells that were not pulsed with peptide were prepared as control target cells.
CTL-inducing activity was determined by ^51Cr release assay (J. Immunol., 159:4753, 1997), wherein the previously prepared transgenic mouse splenocyte preparation was added to said Jurkat-A2402/K^b cells as the target cells.
Immunogenicity of each antigen peptide was evaluated using the HLA-A2402/K^b transgenic mouse as constructed in aforementioned References. For the evaluation of each peptide for its immunogenicity, three transgenic mice were immunized with one peptide.
Specifically, each antigen peptide and the helper peptide were adjusted to 40 mg/ml and 20 mg/ml, respectively, in DMSO, and diluted with a physiological saline to 2 mg/ml and 1 mg/ml, respectively. They were then mixed with an equal amount of Freund's incomplete adjuvant (IFA) using a glass syringe to prepare a water-in-oil emulsion. The resultant emulsion (200 μl) was injected into the HLA-A2402/K^b transgenic mouse subcutaneously in the base of the tail for immunization. Seven days after the initiation of experiment, the spleen was removed and grounded on the frosted part of glass slide, and splenocytes were recovered and prepared. A portion of the splenocytes undergone hemolysis treatment with an ACK buffer (0.15 M NH4Cl, 10 mM KHCO3, 0.1 mM EDTA, pH 7.2-7.4) was exposed to X ray radiation (2,000 rad), then pulsed with the above-mentioned peptide (100 μg/ml) for 1 hour, and seeded into a 24-well plate at 7×10^6/well. Simultaneously, non-radiated, non-peptide-pulsed splenocytes (7×10^5/well) were added together and stimulated in vitro at 37° C. for 6 days. The in vitro stimulation was carried out in RPMI1640 medium supplemented with 10% FCS, 10 mM HEPES, 20 mM L-glutamine, 1 mM sodium pyruvate, 1 mM MEM nonessential amino acids, 1% MEM vitamin and 55 μM 2-mercaptoethanol.
Then, the test for cytotoxic activity was conducted according to the conventional manner. Jurkat-A2402/K^b cells (Reference 8), and Jurkat-A2402/K^b cells pulsed with the peptide were used as target cells (T). These cells were labeled with ^51Cr (3.7 MBq/10^6 cells) and pulsed with the peptide at 100 μg/ml for one hour (The labeling was carried out over 2 hours, and 1 hour after the initiation of labeling, the peptide was added).

[2] = tested on: RERF-LC-AI cells; details: PBMC effector cells stimulated with peptide; targets RERF-LC-AI (WT1+, HLA-A24+) versus WT1+/HLA-A2402- and WT1-/HLA-A24+ lung cancer lines (LK87, 11-18)
Procedure: (§1) Peripheral blood mononuclear cells were separated from healthy donors positive for HLA-A2402, and were placed into wells of a 24-well plate at 4×10^6 cells/well. To the wells, the natural peptide of SEQ ID NO: 7 or the altered peptide of SEQ ID NO: 3 was added at a concentration of 10 μM, and the mixture was incubated for a week in a culture medium comprising 45% RPMI1640, 45% AIV, 10% inactivated human AB serum, 1× nonessential amino acids, 25 ng/ml 2-mercaptoethanol, […] streptomycin, and 50 U/ml penicillin. After the incubation, the cells were adjusted to 2×10^6 cells/well, which were used as responder cells hereafter. On the other hand, peripheral blood mononuclear cells separated from the same healthy donors were incubated together with 10 μM of either of these peptides for 4 hours to accomplish the pulsing with peptide, and then radiated at 30 Gy. The cells were adjusted to 4×10^6 cells/well, which were used as stimulator cells hereafter.
(§2) The responder cells and the stimulator cells thus prepared were mixed together, and the mixture was added with IL-2 at 30 U/ml, and incubated. A similar stimulation of the responder cells with the stimulator cells was conducted three times with an interval of a week. The cytotoxic activity in those cells thus obtained was determined by ^51Cr release assay wherein the cytotoxic activity was determined by reacting the C1R-A*2402 cells positive for an HLA-A24 (Int. J. Cancer, 81, p 387, 1999) labeled with ^51Cr that were pulsed with the natural peptide of SEQ ID NO: 7 as target cells (T), and the cells stimulated with the natural peptide of SEQ ID NO: 7 or the altered peptide of SEQ ID NO: 3 as described above (effector cells)(E) at an E/T ratio of 10, 20 or 40. […] Further, a lung cancer cell line positive for WT1 and positive for an HLA-A24, RERF-LC-AI cells; a lung cancer cell line positive for WT1 and negative for an HLA-A2402, 11-18 cells; or a lung cancer cell line negative for WT1 and positive for an HLA-A24, 11-18 cells were used as target cells to determine the cytotoxic activities of the effector cells described above in a similar manner by ^51Cr release assay.

[3] = tested on: C1R-A*2402 cells pulsed with the natural peptide of SEQ ID NO: 7; details: PBMC from HLA-A2402 positive healthy donors stimulated in vitro with 10 μM peptide; E/T ratio of 10, 20 or 40
Procedure: as §1, §2

[4] = tested on: Jurkat-A2402/K^b cells pulsed with the natural or non-substituted peptide; details: for cross-reactivity of effector cells induced by the substituted peptide to the non-substituted peptide (cytotoxic activity): mice immunized with peptide M or N, targets pulsed with peptide M or N, with peptide H, or without any peptide
Procedure: Cross-reactivity of the effector cells induced by the altered peptide to the natural peptide was tested. Effector cells induced by immunizing the mice with the altered form: peptide H (E) and target cells of the Jurkat-A2402/K^b cells pulsed with the natural form: peptide C (T) were combined and reacted at an E/T ratio of 80, and the cytotoxic activity was determined by ^51Cr release assay.
Cross-reactivity of the effector cells induced by the substituted peptide to the non-substituted peptide was tested. To effector cells induced by immunizing the mice with peptide M or N (E), target cells of the Jurkat-A2402/K^b cells pulsed with peptide M or N, with peptide H, or without any peptide (T) were reacted, and the cytotoxic activities of the effector cells were determined by ^51Cr release assay.

AYLPAVPSL [peptide I, altered peptide K, position 2 altered into tyrosine]
immunogenicity (activity to induce CTLs; cytotoxic activity, % Specific Lysis) [1]: have a high immunogenicity; also recorded: specific CTLs were induced

CEA268-277: known HLA-A24-restricted cancer antigen peptide derived from CEA [reference compound]
induction of specific CTLs (cytotoxic activity, % Specific Lysis) [1]: induction of specific CTLs by stimulation with these known HLA-A24-resticted cancer antigen peptides was observed; also recorded: specific CTLs were induced

RYFPNAPYL [peptide F]
immunogenicity (activity to induce CTLs; cytotoxic activity, % Specific Lysis) [1]: have a high immunogenicity; also recorded: specific CTLs were induced

RYPGVAPTL [peptide G]
cytotoxic activity of effector cells on lung cancer cell lines [2]: CTLs were induced | CTL-inducing activity (cytotoxic activity) [3]: CTLs were induced

Arg-Tyr-Pro-Ser-Abu-Gln-Lys-Lys-Phe (RYPS[Abu]QKKF) [peptide O, peptide H with cysteine at position 5 substituted with α-aminobutyric acid]
immunogenicity (cytotoxic activity, % Specific Lysis) ([1]; Example 5: HLA-A24 expressing transgenic mouse immunized with peptide, effector and target cells mixed at various E/T ratios): immunogenicity equivalent to the non-substituted peptide, peptide H; also recorded: specific CTLs were induced

HER-2/neu780-788: HLA-A24-restriced peptide derived from human tumor antigen HER-2/neu (PYVSRLLGI) [reference compound]
induction of specific CTLs (cytotoxic activity, % Specific Lysis) [1]: induction of specific CTLs by stimulation with HER-2/neu780-788 was observed | induction of specific CTLs (cytotoxic activity, % Specific Lysis) ([1]; listed as HER2/neu780-788): specific CTLs were induced

AYPGCNKRYF [peptide E, natural peptide, positions 326 to 335 of human WT1]
immunogenicity (activity to induce CTLs; cytotoxic activity, % Specific Lysis) [1]: no specific CTL was induced

MAGE-3195-203: known HLA-A24-restricted cancer antigen peptide derived from MAGE-3 [reference compound]
induction of specific CTLs (cytotoxic activity, % Specific Lysis) [1]: induction of specific CTLs by stimulation with these known HLA-A24-resticted cancer antigen peptides was observed; also recorded: specific CTLs were induced

RYPSSQKKF [peptide M]
cross-reactivity of effector cells induced by the substituted peptide to the non-substituted peptide (cytotoxic activity) [4]: exhibited a cytotoxic activity against all of the cells pulsed with the substituted peptides

CEA652-660: known HLA-A24-restricted cancer antigen peptide derived from CEA [reference compound]
induction of specific CTLs (cytotoxic activity, % Specific Lysis) [1]: induction of specific CTLs by stimulation with these known HLA-A24-resticted cancer antigen peptides was observed; also recorded: specific CTLs were induced

RYPSAQKKF [peptide N]
cross-reactivity of effector cells induced by the substituted peptide to the non-substituted peptide (cytotoxic activity) [4]: exhibited a cytotoxic activity against all of the cells pulsed with the substituted peptides

RWPSCQKKF [peptide C, natural peptide, positions 417 to 425 of human WT1]
immunogenicity (activity to induce CTLs; cytotoxic activity, % Specific Lysis) [1]: have no immunogenicity; also recorded: no specific CTL was induced

ALLPAVPSL [peptide K, natural peptide, positions 10 to 18 of human WT1]
immunogenicity (activity to induce CTLs; cytotoxic activity, % Specific Lysis) [1]: have no immunogenicity; also recorded: no specific CTL was induced

QYRIHTHGVF [peptide D, natural peptide, positions 285 to 294 of human WT1]
immunogenicity (activity to induce CTLs; cytotoxic activity, % Specific Lysis) [1]: no specific CTL was induced

NQMNLGATL [peptide L, natural peptide, positions 239 to 247 of human WT1]
immunogenicity (activity to induce CTLs; cytotoxic activity, % Specific Lysis) [1]: have no immunogenicity; also recorded: no specific CTL was induced

RYPSCQKKF [peptide H]
cross-reactivity of effector cells induced by the altered peptide to the natural peptide (cytotoxic activity) ([4]; mice immunized with peptide H, targets pulsed with peptide H or natural peptide C, E/T ratio of 80): exhibited a cytotoxic activity against both cells pulsed with the altered and natural forms

NYMNLGATL [peptide J, altered peptide L, position 2 altered into tyrosine]
immunogenicity (activity to induce CTLs; cytotoxic activity, % Specific Lysis) [1]: have a high immunogenicity; also recorded: specific CTLs were induced
